Assay results reported in US20260234131A1, “THERAPEUTIC ALKALOID COMPOUNDS” (Sensorium Therapeutics, Inc., priority 2023, published 2026).

Legend:
[1] = target: T1, SERT (Homo sapiens, UniProt P31645); test: SERT inhibition assay (Neurotransmitter Transportation Fluorescence assay, stable 5HTT cells); format: cell-based; settings: for IC50 ratio to (−) mesembrine: SERT assay IC50 relative to (−) mesembrine; for IC50: stable 5HTT cells, 30 minutes at 37° C., fluorescence uptake kit, read-out: SERT Assay Potency Range
T1 construct: expressed in transfected cells
Experimental: SERT inhibition can be measured using a Neruotransmitter Transportation Fluorescence assay. Briefly, stable 5HTT cells were prepared in a 384 microwell plate. Compounds were prepared by in assay buffer (20 mM HEPES, 0.1% BSA). The compounds were added to the plated cells and incubated for 30 minutes at 37° C. 25 μL of dye solution (Molecular Devices Neurotransmitter Transporter Uptake Assay Kit) is added per well and incubated for 30 minutes at 37° C. The plates are then read on a plate reader.

[2] = pharmacokinetics described for (−) mesembrine; species not given; cited from earlier work

T1 sequence (P31645 whole entry, species assumed): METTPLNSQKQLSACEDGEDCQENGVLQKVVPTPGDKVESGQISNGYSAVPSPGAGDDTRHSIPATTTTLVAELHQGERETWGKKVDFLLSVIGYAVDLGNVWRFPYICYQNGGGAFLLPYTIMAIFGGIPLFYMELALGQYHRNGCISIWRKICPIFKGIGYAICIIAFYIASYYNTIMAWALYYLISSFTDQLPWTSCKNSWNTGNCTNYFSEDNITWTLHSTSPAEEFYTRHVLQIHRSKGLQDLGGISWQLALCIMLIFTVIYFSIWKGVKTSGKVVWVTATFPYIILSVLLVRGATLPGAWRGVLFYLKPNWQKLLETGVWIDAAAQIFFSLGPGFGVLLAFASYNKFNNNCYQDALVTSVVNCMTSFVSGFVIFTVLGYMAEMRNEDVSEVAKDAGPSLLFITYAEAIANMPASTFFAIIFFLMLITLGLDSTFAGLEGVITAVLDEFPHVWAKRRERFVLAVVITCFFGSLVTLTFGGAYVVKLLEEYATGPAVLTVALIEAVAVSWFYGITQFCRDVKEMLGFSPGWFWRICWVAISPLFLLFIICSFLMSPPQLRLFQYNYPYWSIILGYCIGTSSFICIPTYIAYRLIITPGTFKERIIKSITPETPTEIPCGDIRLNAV

| SMILES | IC50 ratio to (−) mesembrine [1] | IC50 [1] [nM] | half-life in plasma [2] |
| --- | --- | --- | --- |
| CN1CC[C@@]2(c3ccc4c(c3)OC(F)(F)O4)CCC(=O)C[C@@H]12 (single isomer, unassigned) [Compound 233] | ≥100 | 500 to 1500 | – |
| CN1CC[C@]2(c3ccc4c(c3)OC(F)(F)O4)CCC(=O)C[C@H]12 (single isomer, unassigned) [Compound 232] | <5 | < 50 | – |
| COc1ccc([C@@]23CCC(=O)C[C@@H]2N(C)CC3)cc1OC [Mesembrine] | – | – | less than 2 hours |
